Consider two molecules from paper PMC3217100 (2011).

Assay [1] deals with T1, nicotinic α4β2 receptor (α4β2 nAChR) (Rattus norvegicus, UniProt P09483+P12390). Briefly: radioligand competition with 3H-cytisine, rat brain homogenate. It is filed as binding. The settings on record: read-out: Ki ^a; cited from earlier work. In general terms: Displacement assays read how much labelled ligand stays bound in the presence of the test substance.
For assay [2], the target named is T1, nicotinic α4β2 receptor (α4β2 nAChR). The description is as above. It is filed as binding.

Structures are written as SMILES. Read-outs that look alike come from different tables or passages of the source.

As usually defined, the Ki is the equilibrium dissociation constant of an inhibitor or competing ligand from its target. On to `FCCCc1cncc(OC[C@@H]2CCCN2)c1` [compound 3, Nifrolidine], for which, in assay [1], the Ki was 0.8 nM. As to `FCCCc1cncc(OC[C@@H]2CCN2)c1` [compound 4, 3-(2-(S)-azetidinylmethoxy)-5-(3′-fluoropropyl)pyridine], in assay [2], the Ki was found to be 0.67 nM.
